This note sets out measurements from US20190117713A1, “ANTIBACTERIAL COMPOSITION” (FermBiotics Holding ApS, priority 2016, published 2019).

The assay deals with streptococcus infection. The experiment in a line: Treatment of a patient suffering from a streptococcus infection (case report). The following applies: treatment repeated 4 times more.

For phenoxymethylpenicillinsodium, the “Improvement of streptococcus infection after repeated treatment” value is reported as “no significant improvement”.
